How the values were obtained:
[1] = tested on: SKBR3 (PI3Kα-Wild Type) cell line; assay: HTRF phospho-AKT(S473) cell assay in SKBR3 cells; type: cell-based, human
Procedure, shortened: (§1)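 T47D: RPMI + 10% FBS + 0.2 units/mL insulin, top 5 μM. SKBR3: McCoy's 5A + 10% FBS, top 10 μM, 70 ng/ml PDGF-BB last 15 min. Both: 12-pt 1:3, 2 h, 37° C, max 0.5% DMSO; HTRF pAKT(S473); IC50.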

[2] = tested on: T47D (PI3Kα-H1047R) cell line; assay: HTRF phospho-AKT(S473) cell assay in T47D cells; type: cell-based, human
Procedure, shortened: as §1

[3] = Homo sapiens, SK-BR-3; SKBR3 (PI3Kα-Wild Type) cells, HTRF phospho-AKT(S473), 2 hours compound incubation, PDGF-BB stimulated
[4] = Homo sapiens; T47D (PI3Kα-H1047R) cells, HTRF phospho-AKT(S473), 2 hours compound incubation
[5] = Homo sapiens, SK-BR-3; HTRF phospho-AKT(S473), SKBR3 (PI3Kα-Wild Type) cells, 2 hours compound incubation, PDGF-BB stimulated
[6] = Homo sapiens; HTRF phospho-AKT(S473), T47D (PI3Kα-H1047R) cells, 2 hours compound incubation

| IC50 [1, 3] | IC50 [2, 4] | IC50 [1, 5] | IC50 [2, 6] | Compound |
| --- | --- | --- | --- | --- |
| ≥ 5000 nM | 250 to 500 nM |  |  | Cc1cc([C@@H](C)Nc2ccc(Cl)nc2C(=O)NS(C)(=O)=O)c2nc(N3C[C@@H]4[C@H](C3)[C@H]4c3cnc(C)c(F)c3)n(C)c(=O)c2c1 [Compound 423, 6-chloro-3-(((R)-1-(2-((1R,5S,6S)-6-(5-fluoro-6-methylpyridin-3-yl)-3-azabicyclo[3.1.0]hexan-3-yl)-3,6-dimethyl-4-oxo-3,4-dihydroquinazolin-8-yl)ethyl)amino)-N-(methylsulfonyl) picolinamide] |
| ≥ 5000 nM | 250 to 500 nM |  |  | Cc1cc([C@@H](C)Nc2ccc(Cl)nc2C(=O)NS(C)(=O)=O)c2nc(N3C[C@@H]4[C@H](C3)[C@H]4c3c(F)cnn3C)n(C)c(=O)c2c1 [Compound 424, 6-chloro-3-(((R)-1-(2-((1R,5S,6R)-6-(4-fluoro-1-methyl-1H-pyrazol-5-yl)-3-azabicyclo[3.1.0]hexan-3-yl)-3,6-dimethyl-4-oxo-3,4-dihydroquinazolin-8-yl)ethyl)amino)-N-(methylsulfonyl) picolinamide] |
| 1000 to 5000 nM | < 250 nM |  |  | Cc1cc([C@@H](C)Nc2ccc(Cl)nc2C(=O)NS(C)(=O)=O)c2nc(N3C[C@@H]4[C@H](C3)[C@H]4c3cn(C)nc3C)n(C)c(=O)c2c1 [Compound 430, 6-chloro-3-(((R)-1-(2-((1R,5S,6S)-6-(1,3-dimethyl-1H-pyrazol-4-yl)-3-azabicyclo[3.1.0]hexan-3-yl)-3,6-dimethyl-4-oxo-3,4-dihydroquinazolin-8-yl)ethyl)amino)-N-(methylsulfonyl) picolinamide] |
| 1000 to 5000 nM | < 250 nM |  |  | CCn1c(N2C[C@@H]3[C@H](C2)[C@H]3c2ccn(C)n2)nc2c([C@@H](C)Nc3ccc(Cl)nc3C(=O)NS(C)(=O)=O)cc(C)cc2c1=O [Compound 432, 6-chloro-3-(((R)-1-(3-ethyl-6-methyl-2-((1R,5S,6R)-6-(1-methyl-1H-pyrazol-3-yl)-3-azabicyclo[3.1.0]hexan-3-yl)-4-oxo-3,4-dihydroquinazolin-8-yl)ethyl)amino)-N-(methylsulfonyl) picolinamide] |
| 1000 to 5000 nM | < 250 nM |  |  | Cc1cc([C@@H](C)Nc2ccc(Cl)nc2C(=O)NS(C)(=O)=O)c2nc(N3C[C@@H]4[C@H](C3)[C@H]4c3cc(C)n(C)n3)n(C)c(=O)c2c1 [Compound 435, 6-chloro-3-(((R)-1-(2-((1R,5S,6R)-6-(1,5-dimethyl-1H-pyrazol-3-yl)-3-azabicyclo[3.1.0]hexan-3-yl)-3,6-dimethyl-4-oxo-3,4-dihydroquinazolin-8-yl)ethyl)amino)-N-(methylsulfonyl) picolinamide] |
|  |  | 1000 to 5000 nM | < 250 nM | COc1nn(C)cc1[C@H]1[C@@H]2CN(c3nc4c([C@@H](C)Nc5ccc(Cl)nc5C(=O)NS(C)(=O)=O)cc(C)cc4c(=O)n3C)C[C@@H]21 [Compound 440, 6-chloro-3-(((R)-1-(2-((1R,5S,6S)-6-(3-methoxy-1-methyl-1H-pyrazol-4-yl)-3-azabicyclo[3.1.0]hexan-3-yl)-3,6-dimethyl-4-oxo-3,4-dihydroquinazolin-8-yl)ethyl)amino)-N-(methylsulfonyl) picolinamide] |
|  |  | 1000 to 5000 nM | < 250 nM | Cc1cc([C@@H](C)Nc2ccc(Cl)nc2C(=O)NS(C)(=O)=O)c2nc(N3C[C@@H]4[C@H](C3)[C@H]4c3ccc(C)nn3)n(C)c(=O)c2c1 [Compound 441, 6-chloro-3-(((R)-1-(3,6-dimethyl-2-((1R,5S,6R)-6-(6-methylpyridazin-3-yl)-3-azabicyclo [3.1.0]hexan-3-yl)-4-oxo-3,4-dihydroquinazolin-8-yl)ethyl)amino)-N-(methylsulfonyl) picolinamide] |

The next lines start with the compound.

| Compound | IC50 [1, 3] | IC50 [2, 4] | IC50 [1, 5] | IC50 [2, 6] |
| --- | --- | --- | --- | --- |
| Cc1cc([C@@H](C)Nc2ccc(Cl)nc2C(=O)NS(C)(=O)=O)c2nc(N3CCC(c4c(C)cnn4C)CC3)n(C)c(=O)c2c1 [Compound 427, (R)-6-chloro-3-((1-(2-(4-(1,4-dimethyl-1H-pyrazol-5-yl)piperidin-1-yl)-3,6-dimethyl-4-oxo-3,4-dihydroquinazolin-8-yl)ethyl)amino)-N-(methylsulfonyl) picolinamide] | 1000 to 5000 nM | < 250 nM |  |  |
| Cc1cc([C@@H](C)Nc2ccc(Cl)nc2C(=O)NS(C)(=O)=O)c2nc(N3CCC(c4cnc(C(F)F)cn4)CC3)n(C)c(=O)c2c1 [Compound 428, (R)-6-chloro-3-((1-(2-(4-(5-(difluoromethyl)pyrazin-2-yl)piperidin-1-yl)-3,6-dimethyl-4-oxo-3,4-dihydroquinazolin-8-yl)ethyl)amino)-N-(methylsulfonyl) picolinamide] | 1000 to 5000 nM | 250 to 500 nM |  |  |
| Cc1cc([C@@H](C)Nc2ccc(Cl)nc2C(=O)NS(C)(=O)=O)c2nc(C3CCN(c4nn(C)cc4F)CC3)n(C)c(=O)c2c1 [Compound 429, (R)-6-chloro-3-((1-(2-(1-(4-fluoro-1-methyl-1H-pyrazol-3-yl)piperidin-4-yl)-3,6-dimethyl-4-oxo-3,4-dihydroquinazolin-8-yl)ethyl)amino)-N-(methylsulfonyl) picolinamide] | ≥ 5000 nM | 250 to 500 nM |  |  |
| C[C@@H](Nc1ccc(Cl)nc1C(=O)NS(C)(=O)=O)c1cc(Cl)cc2c(=O)n(C)c(N3CCC(c4nn(C)cc4F)CC3)nc12 [Compound 431, (R)-6-chloro-3-((1-(6-chloro-2-(4-(4-fluoro-1-methyl-1H-pyrazol-3-yl)piperidin-1-yl)-3-methyl-4-oxo-3,4-dihydroquinazolin-8-yl)ethyl)amino)-N-(methylsulfonyl) picolinamide] | 1000 to 5000 nM | 250 to 500 nM |  |  |
| CCn1c(N2CCC(c3nn(C)cc3F)CC2)nc2c([C@@H](C)Nc3ccc(Cl)nc3C(=O)NS(C)(=O)=O)cc(C)cc2c1=O [Compound 433, (R)-6-chloro-3-((1-(3-ethyl-2-(4-(4-fluoro-1-methyl-1H-pyrazol-3-yl)piperidin-1-yl)-6-methyl-4-oxo-3,4-dihydroquinazolin-8-yl)ethyl)amino)-N-(methylsulfonyl) picolinamide] | ≥ 5000 nM | < 250 nM |  |  |
| Cc1cc([C@@H](C)Nc2ccc(Cl)nc2C(=O)NS(C)(=O)=O)c2nc(N3CCC(c4nc(C(F)F)n(C)n4)CC3)n(C)c(=O)c2c1 [Compound 434, (R)-6-chloro-3-((1-(2-(4-(5-(difluoromethyl)-1-methyl-1H-1,2,4-triazol-3-yl)piperidin-1-yl)-3,6-dimethyl-4-oxo-3,4-dihydroquinazolin-8-yl)ethyl)amino)-N-(methylsulfonyl) picolinamide] | ≥ 5000 nM | 500 to 1000 nM |  |  |
| Cc1cc([C@@H](C)Nc2ccc(Cl)nc2C(=O)NS(C)(=O)=O)c2nc(N3CCC(c4cc(F)cnc4C)CC3)n(C)c(=O)c2c1 [Compound 436, (R)-6-chloro-3-((1-(2-(4-(5-fluoro-2-methylpyridin-3-yl)piperidin-1-yl)-3,6-dimethyl-4-oxo-3,4-dihydroquinazolin-8-yl)ethyl)amino)-N-(methylsulfonyl) picolinamide] | 1000 to 5000 nM | < 250 nM |  |  |
| Cc1cc([C@@H](C)Nc2ccc(Cl)nc2C(=O)NS(C)(=O)=O)c2nc(N3CCC(c4cccnc4C)CC3)n(C)c(=O)c2c1 [Compound 437, (R)-6-chloro-3-((1-(3,6-dimethyl-2-(4-(2-methylpyridin-3-yl)piperidin-1-yl)-4-oxo-3,4-dihydroquinazolin-8-yl)ethyl)amino)-N-(methylsulfonyl) picolinamide] | 1000 to 5000 nM | < 250 nM |  |  |
| Cc1cc([C@@H](C)Nc2ccc(Cl)nc2C(=O)NS(C)(=O)=O)c2nc(N3CCC(c4nccnc4C)CC3)n(C)c(=O)c2c1 [Compound 438, (R)-6-chloro-3-((1-(3,6-dimethyl-2-(4-(3-methylpyrazin-2-yl)piperidin-1-yl)-4-oxo-3,4-dihydroquinazolin-8-yl)ethyl)amino)-N-(methylsulfonyl) picolinamide] | ≥ 5000 nM | 250 to 500 nM |  |  |
| Cc1cc([C@@H](C)Nc2ccc(Cl)nc2C(=O)NS(C)(=O)=O)c2nc(N3C[C@@H]4[C@H](C3)[C@H]4c3cnccn3)n(C)c(=O)c2c1 [Compound 439, 6-chloro-3-(((R)-1-(3,6-dimethyl-4-oxo-2-((1R,5S,6R)-6-(pyrazin-2-yl)-3-azabicyclo[3.1.0]hexan-3-yl)-3,4-dihydroquinazolin-8-yl)ethyl)amino)-N-(methylsulfonyl) picolinamide] | 1000 to 5000 nM | < 250 nM |  |  |
| Cc1cnc(C2CCN(c3nc4c([C@@H](C)Nc5ccc(Cl)nc5C(=O)NS(C)(=O)=O)cc(Cl)cc4c(=O)n3C)CC2)cn1 [Compound 442, (R)-6-chloro-3-((1-(6-chloro-3-methyl-2-(4-(5-methylpyrazin-2-yl)piperidin-1-yl)-4-oxo-3,4-dihydroquinazolin-8-yl)ethyl)amino)-N-(methylsulfonyl) picolinamide] |  |  | 1000 to 5000 nM | < 250 nM |
| Cc1cc([C@@H](C)Nc2ccc(Cl)nc2C(=O)NS(C)(=O)=O)c2nc(N3CCC(c4ccn(C(F)(F)F)n4)CC3)n(C)c(=O)c2c1 [Compound 445, (R)-6-chloro-3-((1-(3,6-dimethyl-4-oxo-2-(4-(1-(trifluoromethyl)-1H-pyrazol-3-yl)piperidin-1-yl)-3,4-dihydroquinazolin-8-yl)ethyl)amino)-N-(methylsulfonyl) picolinamide] |  |  | ≥ 5000 nM | 250 to 500 nM |
| Cc1cc([C@@H](C)Nc2ccc(Cl)nc2C(=O)NS(C)(=O)=O)c2nc(N3CCC(c4ccnn4C(F)(F)F)CC3)n(C)c(=O)c2c1 [Compound 446, (R)-6-chloro-3-((1-(3,6-dimethyl-4-oxo-2-(4-(1-(trifluoromethyl)-1H-pyrazol-5-yl)piperidin-1-yl)-3,4-dihydroquinazolin-8-yl)ethyl)amino)-N-(methylsulfonyl) picolinamide] |  |  | ≥ 5000 nM | 250 to 500 nM |
